Test results reported in ChEMBL document CHEMBL1201862, “PubChem BioAssay data set” (2004).
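Interpolation was linear, between the two tested concentrations surrounding the appropriate level; five concentrations were tested over 48 hours in 96-well plates. GI50 is the concentration that inhibits growth by half.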 Active and inactive are the calls of the source. No stated cut-off is given here; in the data, active = GI50 up to about 1.1 µM and inactive = higher.

How the values were obtained:
Experiment in all cases: NCI anticancer screen, dose series, 48 h
[1] = system: OVCAR-8
[2] = system: SNB-19
[3] = system: HCT-116
[4] = system: IGROV-1
[5] = system: U-251
[6] = system: OVCAR-4
[7] = system: NCI-H460
[8] = system: SF-295
[9] = system: OVCAR-3
[10] = system: RXF 393
[11] = system: UO-31
[12] = system: UACC-62
[13] = system: M14
[14] = system: SK-MEL-5
[15] = system: HOP-92
[16] = system: EKVX
[17] = system: MOLT-4

`Nc1nc(Cl)cc(NCCCCCCCCNc2cc(Cl)nc(N)n2)n1` was tested, and the GI50 [1] was 11.7 µM (inactive), the GI50 [2] was > 100 µM (inactive) and the GI50 [3] was 2.39 µM (inactive). For the same molecule, the GI50 [4] was 23.7 µM (inactive), the GI50 [5] was 25.6 µM (inactive) and the GI50 [6] was 4.29 µM (inactive). The GI50 [7] was 31.3 µM (inactive), the GI50 [8] was 1.48 µM (inactive) and the GI50 [9] was 3.2 µM (inactive). For the same molecule, the GI50 [10] was 12.2 µM (inactive), the GI50 [11] was 22 µM (inactive) and the GI50 [12] was 1.36 µM (inactive). The GI50 [13] was 19.2 µM (inactive), the GI50 [14] was 0.675 µM (active) and the GI50 [15] was 7.76 µM (inactive). The GI50 [16] was > 100 µM (inactive).
With `COc1ccc2c(c1)C(=O)C1CC(=O)CCC21` (configuration not stated) the GI50 [1] was > 100 µM (inactive), the GI50 [2] was > 100 µM (inactive) and the GI50 [3] was > 100 µM (inactive). For the same molecule, the GI50 [4] was > 100 µM (inactive), the GI50 [5] was > 100 µM (inactive) and the GI50 [6] was > 100 µM (inactive). For the same molecule, the GI50 [7] was > 100 µM (inactive), the GI50 [8] was > 100 µM (inactive) and the GI50 [9] was > 100 µM (inactive). The GI50 [11] was > 100 µM (inactive), the GI50 [12] was > 100 µM (inactive) and the GI50 [13] was > 100 µM (inactive). The GI50 [14] was > 100 µM (inactive), the GI50 [15] was > 100 µM (inactive) and the GI50 [17] was > 100 µM (inactive). The GI50 [16] was > 100 µM (inactive).
For `CC(CCCOC(c1ccccc1)(c1ccccc1)c1ccccc1)OC(=O)Nc1ccccc1` (configuration not stated), the GI50 [1] was 14 µM (inactive), the GI50 [3] was 11.1 µM (inactive) and the GI50 [4] was 16.4 µM (inactive). The GI50 [5] was 13.6 µM (inactive), the GI50 [6] was 12.4 µM (inactive) and the GI50 [7] was 11.7 µM (inactive). For the same molecule, the GI50 [8] was 12.7 µM (inactive), the GI50 [9] was 14 µM (inactive) and the GI50 [10] was 12.8 µM (inactive). The GI50 [11] was 11.6 µM (inactive), the GI50 [12] was 12.8 µM (inactive) and the GI50 [13] was 14.2 µM (inactive). For the same molecule, the GI50 [14] was 14.1 µM (inactive), the GI50 [15] was 10 µM (inactive) and the GI50 [17] was 4.55 µM (inactive).
`CCNC(=O)COc1ccc(Cl)c(C)c1` was tested, and the GI50 [2] was > 100 µM (inactive), the GI50 [3] was > 100 µM (inactive) and the GI50 [4] was > 100 µM (inactive). For the same molecule, the GI50 [5] was > 100 µM (inactive), the GI50 [6] was > 100 µM (inactive) and the GI50 [7] was > 100 µM (inactive). The GI50 [8] was > 100 µM (inactive), the GI50 [9] was > 100 µM (inactive) and the GI50 [10] was > 100 µM (inactive). The GI50 [11] was > 100 µM (inactive), the GI50 [12] was > 100 µM (inactive) and the GI50 [13] was > 100 µM (inactive). For the same molecule, the GI50 [14] was > 100 µM (inactive), the GI50 [15] was > 100 µM (inactive) and the GI50 [17] was > 100 µM (inactive).
In the case of `CC1(c2cccc(N)c2)C2C(=O)NC(=O)C1C(=O)NC2=O` (configuration not stated), the GI50 [1] is reported as 35.9 µM (inactive), the GI50 [2] is reported as 29.2 µM (inactive) and the GI50 [4] is reported as 44.3 µM (inactive). For the same molecule, the GI50 [6] was 36.7 µM (inactive), the GI50 [7] was 33 µM (inactive) and the GI50 [8] was 22.4 µM (inactive). The GI50 [9] was 21.7 µM (inactive), the GI50 [10] was 26.1 µM (inactive) and the GI50 [11] was 22.3 µM (inactive). The GI50 [12] was 33.3 µM (inactive), the GI50 [13] was 36.7 µM (inactive) and the GI50 [14] was 18.5 µM (inactive). For the same molecule, the GI50 [15] was 22.9 µM (inactive), the GI50 [17] was 18 µM (inactive) and the GI50 [16] was 45 µM (inactive).
For `C/C(CCn1[nH]c(=O)ccc1=O)=N\NC(=O)C(N)=O`, the GI50 [1] was > 100 µM (inactive), the GI50 [2] was > 100 µM (inactive) and the GI50 [3] was > 100 µM (inactive). The GI50 [4] was > 100 µM (inactive), the GI50 [5] was > 100 µM (inactive) and the GI50 [6] was > 100 µM (inactive). For the same molecule, the GI50 [7] was > 100 µM (inactive), the GI50 [8] was > 100 µM (inactive) and the GI50 [9] was > 100 µM (inactive). The GI50 [10] was > 100 µM (inactive), the GI50 [11] was > 100 µM (inactive) and the GI50 [12] was > 100 µM (inactive). The GI50 [13] was > 100 µM (inactive), the GI50 [14] was > 100 µM (inactive) and the GI50 [15] was > 100 µM (inactive). The GI50 [16] was > 100 µM (inactive).
`Cc1nc(Nc2ccc([N+](=O)[O-])cc2)sc1C(/C=C/c1ccc(N(C)C)cc1)=N/NC(=O)c1ccccc1` was tested, and the GI50 [1] was > 100 µM (inactive), the GI50 [2] was 62.2 µM (inactive) and the GI50 [3] was 63.7 µM (inactive). For the same molecule, the GI50 [4] was 51.3 µM (inactive), the GI50 [5] was 56.6 µM (inactive) and the GI50 [6] was 76 µM (inactive). For the same molecule, the GI50 [7] was 59.6 µM (inactive), the GI50 [8] was 56 µM (inactive) and the GI50 [9] was > 100 µM (inactive). For the same molecule, the GI50 [10] was 58.6 µM (inactive), the GI50 [11] was 89.3 µM (inactive) and the GI50 [12] was 4.84 µM (inactive). For the same molecule, the GI50 [13] was 48.8 µM (inactive), the GI50 [15] was 6.82 µM (inactive) and the GI50 [17] was 41.9 µM (inactive). The GI50 [16] was 41.2 µM (inactive).
With `COc1ccc(/C(C#N)=C(/N)SCc2ccccc2Cl)cc1` the GI50 [1] was > 10 µM (inactive), the GI50 [2] was > 10 µM (inactive) and the GI50 [3] was 18.8 µM (inactive). The GI50 [4] was 29.2 µM (inactive), the GI50 [5] was 18.1 µM (inactive) and the GI50 [8] was 17.1 µM (inactive). The GI50 [9] was 11.1 µM (inactive), the GI50 [10] was 16.6 µM (inactive) and the GI50 [11] was > 10 µM (inactive). For the same molecule, the GI50 [12] was 11.9 µM (inactive), the GI50 [13] was 14.2 µM (inactive) and the GI50 [15] was 17.8 µM (inactive). For the same molecule, the GI50 [17] was 19.1 µM (inactive) and the GI50 [16] was 21.2 µM (inactive).
With `CCOC(=O)c1cn(Cc2ccccc2)c(=O)n1Cc1ccccc1` the GI50 [1] was > 100 µM (inactive), the GI50 [2] was > 100 µM (inactive) and the GI50 [3] was > 100 µM (inactive). The GI50 [4] was > 100 µM (inactive), the GI50 [5] was > 100 µM (inactive) and the GI50 [6] was > 100 µM (inactive). The GI50 [7] was > 100 µM (inactive), the GI50 [8] was 67.1 µM (inactive) and the GI50 [9] was > 100 µM (inactive). For the same molecule, the GI50 [10] was > 100 µM (inactive), the GI50 [11] was 48.9 µM (inactive) and the GI50 [12] was > 100 µM (inactive). The GI50 [13] was > 100 µM (inactive), the GI50 [14] was > 100 µM (inactive) and the GI50 [15] was > 100 µM (inactive). For the same molecule, the GI50 [17] was 35 µM (inactive) and the GI50 [16] was > 100 µM (inactive).
`Clc1ccccc1C1N2CCCCC2[C@@H]2c3[nH]c4ccccc4c3CCN12` (some centres not stated) was tested, and the GI50 [1] was 19.8 µM (inactive), the GI50 [2] was 23 µM (inactive) and the GI50 [3] was 18.5 µM (inactive). The GI50 [4] was 35.1 µM (inactive), the GI50 [5] was 17.7 µM (inactive) and the GI50 [6] was 19.1 µM (inactive). The GI50 [7] was 19.4 µM (inactive), the GI50 [8] was 25.4 µM (inactive) and the GI50 [9] was 16.2 µM (inactive). The GI50 [10] was 22 µM (inactive), the GI50 [11] was 19.5 µM (inactive) and the GI50 [12] was 15 µM (inactive). For the same molecule, the GI50 [13] was 17.3 µM (inactive), the GI50 [14] was > 10 µM (inactive) and the GI50 [15] was 41.7 µM (inactive). For the same molecule, the GI50 [17] was 31 µM (inactive) and the GI50 [16] was 40.1 µM (inactive).
With `CC(C)(O)[C@@H]1CC[C@@]2(C)CCCC(O)C2(O)C1` (some centres not stated) the GI50 [1] was > 100 µM (inactive), the GI50 [2] was > 100 µM (inactive) and the GI50 [3] was > 100 µM (inactive). For the same molecule, the GI50 [4] was > 100 µM (inactive), the GI50 [5] was > 100 µM (inactive) and the GI50 [6] was > 100 µM (inactive). For the same molecule, the GI50 [7] was > 100 µM (inactive), the GI50 [8] was > 100 µM (inactive) and the GI50 [9] was > 100 µM (inactive). The GI50 [11] was > 100 µM (inactive), the GI50 [12] was > 100 µM (inactive) and the GI50 [13] was > 100 µM (inactive). For the same molecule, the GI50 [14] was > 100 µM (inactive), the GI50 [15] was > 100 µM (inactive) and the GI50 [17] was > 100 µM (inactive).
In the case of `COc1cc(C=O)c(-c2cc3c(cc2C=O)OCO3)c(OC)c1OC`, the GI50 [1] is reported as 117 µM (inactive), the GI50 [2] is reported as 202 µM (inactive) and the GI50 [3] is reported as 64.3 µM (inactive). The GI50 [4] was 143 µM (inactive), the GI50 [5] was 126 µM (inactive) and the GI50 [7] was 103 µM (inactive). For the same molecule, the GI50 [8] was 70 µM (inactive), the GI50 [9] was 56.6 µM (inactive) and the GI50 [10] was 63.5 µM (inactive). The GI50 [12] was 90.6 µM (inactive), the GI50 [14] was 94.6 µM (inactive) and the GI50 [15] was 29.6 µM (inactive). For the same molecule, the GI50 [17] was 96.2 µM (inactive) and the GI50 [16] was 178 µM (inactive).
With `COc1cc(C)c(CC/C(C)=C/Cc2cc(O)ccc2O)c(C)c1C` [PANICEIN A HYDROQUINONE] the GI50 [1] was > 25 µM (inactive), the GI50 [2] was > 25 µM (inactive) and the GI50 [3] was > 25 µM (inactive). The GI50 [4] was > 25 µM (inactive), the GI50 [5] was > 25 µM (inactive) and the GI50 [6] was > 25 µM (inactive). The GI50 [7] was > 25 µM (inactive), the GI50 [8] was > 25 µM (inactive) and the GI50 [9] was > 25 µM (inactive). The GI50 [10] was > 25 µM (inactive), the GI50 [11] was > 25 µM (inactive) and the GI50 [13] was > 25 µM (inactive). The GI50 [14] was > 25 µM (inactive), the GI50 [15] was > 25 µM (inactive) and the GI50 [17] was > 25 µM (inactive). For the same molecule, the GI50 [16] was > 25 µM (inactive).
